Activity calls are given as the source filed them. The rule behind the calls is not given here.
Columns and labels:
[1] = system: Huh-7; assay: Induction of ER damage in human Huh-7 cells assessed as decrease in glycoprotein content at 2 to 4 uM incubated for 48 hrs by ELISA method; format: functional, cell-based; conditions: dose 2-4 µM
[2] = system: Huh-7; assay: Induction of apoptosis in human Huh-7 cells assessed as viable cells at 8 uM measured after 48 hrs by Annexin V-PE staining based flow cytometry analysis (reference value: 93.69%); format: functional; conditions: read-out: Activity
[3] = system: Huh-7; assay: Induction of ER damage in human Huh-7 cells assessed as decrease in protein-disulfide bond content at 2 to 4 uM incubated for 48 hrs by absorbance based analysis; format: functional, cell-based; conditions: dose 2-4 µM
[4] = system: Mitochondrial membrane; assay: Disruption of mitochondrial membrane potential in human Huh-7 cells assessed as appearance of punctate shaped mitochondria at 2 uM measured after 24 hrs by laser scanning confocal microscopic analysis; format: cell membranes
[5] = Drug localization in endoplasmic reticulum of human Huh-7 cells assessed as colocalization at 100 uM measured within 1 hr by fluorescence based analysis; format: ADME, subcellular; conditions: huh-7, 1 h
[6] = system: Huh-7; assay: Induction of apoptosis in human Huh-7 cells assessed as late apoptotic cells at 8 uM measured after 48 hrs in presence of Z-VAD by Annexin V-PE staining based flow cytometry analysis (reference value: 2.06%); format: functional
[7] = system: Huh-7; assay: Induction of ER stress in human Huh-7 cells assessed as increase in PERK protein level at 4 uM incubated for 48 hrs in presence of 4pba by Western blot analysis; format: functional, cell-based
[8] = system: Huh-7; assay: Induction of apoptosis in human Huh-7 cells assessed as early apoptotic cells at 8 uM measured after 48 hrs by Annexin V-PE staining based flow cytometry analysis (reference value: 0.88%); format: functional
[9] = system: Huh-7; assay: Induction of ER stress in human Huh-7 cells assessed as increase in ATF6 protein level at 4 uM incubated for 48 hrs in presence of 4pba by Western blot analysis; format: functional, cell-based
[10] = system: Huh-7; assay: Induction of ER stress in human Huh-7 cells assessed as increase in PERK protein level at 2 to 4 uM incubated for 48 hrs by Western blot analysis; format: functional, cell-based; conditions: dose 2-4 µM
[11] = system: Huh-7; assay: Induction of apoptosis in human Huh-7 cells assessed as necrotic cells at 4 uM measured after 48 hrs by Annexin V-PE staining based flow cytometry analysis (reference value: 3.37%); format: functional
[12] = system: Huh-7; assay: Induction of apoptosis in human Huh-7 cells assessed as necrotic cells at 8 uM measured after 48 hrs by Annexin V-PE staining based flow cytometry analysis (reference value: 3.37%); format: functional
[13] = system: Huh-7; assay: Induction of ER stress in human Huh-7 cells assessed as increase in GRP78 protein level at 4 uM incubated for 48 hrs in presence of 4pba by Western blot analysis; format: functional, cell-based
[14] = system: Huh-7; assay: Upregulation of Cytochrome C level in human Huh-7 cells at 2 to 4 uM by Western blot analysis; format: functional, cell-based; conditions: dose 2-4 µM
[15] = system: Huh-7; assay: Induction of apoptosis in human Huh-7 cells assessed as viable cells at 4 uM measured after 48 hrs by Annexin V-PE staining based flow cytometry analysis (reference value: 93.69%); format: functional; conditions: read-out: Activity
[16] = system: Huh-7; assay: Induction of mitochondrial ROS release in human Huh-7 cells at 2 uM measured after 24 hrs by fluorescent microscopic analysis; format: functional, cell-based
[17] = system: Huh-7; assay: Induction of apoptosis in human Huh-7 cells assessed as early apoptotic cells at 8 uM measured after 48 hrs in presence of Z-VAD by Annexin V-PE staining based flow cytometry analysis (reference value: 0.88%); format: functional
[18] = system: Huh-7; assay: Induction of apoptosis in human Huh-7 cells assessed as necrotic cells at 2 uM measured after 48 hrs by Annexin V-PE staining based flow cytometry analysis (reference value: 3.37%); format: functional
[19] = system: Huh-7; assay: Induction of apoptosis in human Huh-7 cells assessed as necrotic cells at 8 uM measured after 48 hrs in presence of Z-VAD by Annexin V-PE staining based flow cytometry analysis (reference value: 3.37%); format: functional
[20] = system: Huh-7; assay: Induction of ER stress in human Huh-7 cells assessed as increase in ATF6 protein level at 2 to 4 uM incubated for 48 hrs by Western blot analysis; format: functional, cell-based; conditions: dose 2-4 µM
[21] = system: Huh-7; assay: Induction of ER stress in human Huh-7 cells assessed as increase in calcium ion content by measuring fluorescence intensity at 4 uM incubated for 24 hrs in presence of […] by fluorescence microscopy based analysis; format: functional, cell-based
[22] = system: Huh-7; assay: Induction of ER stress in human Huh-7 cells assessed as increase in calcium ion content by measuring fluorescence intensity at 4 uM incubated for 24 hrs by fluorescence microscopy based analysis; format: functional, cell-based
[23] = system: Huh-7; assay: Induction of apoptosis in human Huh-7 cells assessed as viable cells at 8 uM measured after 48 hrs in presence of Z-VAD by Annexin V-PE staining based flow cytometry analysis (reference value: 93.69%); format: functional; conditions: read-out: Activity
[24] = system: Huh-7; assay: Antiproliferative activity against human Huh-7 cells measured after 48 hrs by MTT assay; format: functional, cell-based; conditions: Huh-7, 48 h
[25] = system: Huh-7; assay: Upregulation of cleaved caspase-3 protein level in human Huh-7 cells at 2 to 4 uM by Western blot analysis; format: functional, cell-based; conditions: dose 2-4 µM
[26] = system: Huh-7; assay: Induction of ER stress in human Huh-7 cells assessed as increase in IRE1 protein level at 2 to 4 uM incubated for 48 hrs by Western blot analysis; format: functional, cell-based; conditions: dose 2-4 µM
[27] = system: Huh-7; assay: Upregulation of BAK protein level in human Huh-7 cells at 2 to 4 uM by Western blot analysis; format: functional, cell-based; conditions: dose 2-4 µM
[28] = system: Huh-7; assay: Induction of apoptosis in human Huh-7 cells assessed as early apoptotic cells at 4 uM measured after 48 hrs by Annexin V-PE staining based flow cytometry analysis (reference value: 0.88%); format: functional
[29] = system: Huh-7; assay: Induction of morphological change in human Huh-7 cells assessed as decrease in number of cells at 2 to 4 uM measured after 48 hrs by HE staining based microscopic analysis; format: functional, cell-based; conditions: dose 2-4 µM
[30] = system: Huh-7; assay: Induction of apoptosis in human Huh-7 cells assessed as late apoptotic cells at 8 uM measured after 48 hrs by Annexin V-PE staining based flow cytometry analysis (reference value: 2.06%); format: functional
[31] = system: Huh-7; assay: Induction of ER stress in human Huh-7 cells assessed as increase in CHOP protein level at 4 uM incubated for 48 hrs in presence of 4pba by Western blot analysis; format: functional, cell-based
[32] = system: Huh-7; assay: Induction of ER stress in human Huh-7 cells assessed as increase in GRP78 protein level at 2 to 4 uM incubated for 48 hrs by Western blot analysis; format: functional, cell-based; conditions: dose 2-4 µM
[33] = system: Huh-7; assay: Upregulation of CRT expression level in human Huh-7 cells at 2 to 4 uM measured after 48 hrs by Western blot analysis; format: functional, cell-based; conditions: dose 2-4 µM
[34] = system: Huh-7; assay: Induction of apoptosis in human Huh-7 cells assessed as viable cells at 2 uM measured after 48 hrs by Annexin V-PE staining based flow cytometry analysis (reference value: 93.69%); format: functional; conditions: read-out: Activity
[35] = system: Huh-7; assay: Induction of apoptosis in human Huh-7 cells assessed as early apoptotic cells at 2 uM measured after 48 hrs by Annexin V-PE staining based flow cytometry analysis (reference value: 0.88%); format: functional
[36] = system: Huh-7; assay: Induction of apoptosis in human Huh-7 cells assessed as late apoptotic cells at 4 uM measured after 48 hrs by Annexin V-PE staining based flow cytometry analysis (reference value: 2.06%); format: functional
[37] = system: Huh-7; assay: Upregulation of Caspase 12 expression level in human Huh-7 cells at 2 to 4 uM measured after 48 hrs by Western blot analysis; format: functional, cell-based; conditions: dose 2-4 µM

With `COc1ccc(COc2cccc3c2C(=O)c2c(OCc4ccc(OC)cc4)cc(C(=O)NCCNCCO)cc2C3=O)cc1` the Activity [1] was “Active”, the viability at 8 µM [2] was 23.7% and the Activity [3] was “Active”. The Activity [4] was “Active”, the Drug uptake [5] was “Active” and the Activity [6] was 4.41%. For the same compound, the Activity [7] was “inactive”, the Activity [8] was 68.79% and the Activity [9] was “inactive”. For the same compound, the Activity [10] was “Active”, the Activity [11] was 8.55% and the Activity [12] was 1.2%. The Activity [13] was “inactive”, the Activity [14] was “Active” and the viability at 4 µM [15] was 40.2%. The Activity [16] was “Active”, the Activity [17] was 16.45% and the Activity [18] was 6.06%. For the same compound, the Activity [19] was 10.59%, the Activity [20] was “Active” and the Activity [21] was “inactive”. For the same compound, the Activity [22] was “Active”, the viability at 8 µM [23] was 68.5% and the IC50 [24] was 1.75 µM. The Activity [25] was “Active”, the Activity [26] was “Active” and the Activity [27] was “Active”. For the same compound, the Activity [28] was 43.64%, the Activity [29] was “Active” and the Activity [30] was 6.32%. For the same compound, the Activity [31] was “inactive”, the Activity [32] was “Active” and the Activity [33] was “Active”. It also gave a viability at 2 µM [34] of 24.1%, an Activity [35] of 65.4% and an Activity [36] of 7.59%. The Activity [37] was “Active”.
